Reference: publication PMC6855808, “Direct binding of phosphatidylglycerol at specific sites modulates desensitization of a ligand-gated ion channel” (eLife, 2019)
Several values for one entry are separate records, joined by “and”; a condition that tells them apart may be missing. Identical values can stand only once. Like-named read-outs stand apart in the source and are kept apart here.

Experiments:
ELIC WT [1] = experiment: Native MS phospholipid binding to delipidated ELIC in C10E5; set-up: species or system Erwinia chrysanthemi; conditions: binomial binding model, 32 sites of equal affinity; 1 μM ELIC in C10E5; read-out: Dissociation constant K
Protocol: Native MS analysis was similar to previous descriptions for other membrane proteins ([Gault et al., 2016]). For analysis of ELIC in DDM, 30 μl of purified protein in 0.02% DDM at ~1 mg/ml was buffer exchanged into 200 mM ammonium acetate pH 7.5% and 0.02% DDM using Biospin six gel filtration spin columns (Bio-Rad, Hercules, CA). 2 μl of buffer exchanged ELIC was loaded into a borosilicate capillary emitter (Thermo Scientific, Waltham, MA), and analyzed by static nanospray on a Thermo QExactive EMR mass spectrometer. The following parameters were used to resolve the ELIC pentamer and minimize dissociation into tetramer and monomer: capillary voltage of 1.2 kV, capillary temperature of 200°C, ion transfer optics set with the injection flatapole, inter-flatapole lens, bent flatapole, transfer multiple as 8, 7, 6, 4 V, respectively, resolution 8,750, AGC target 3 × 10^6, trap pressure set to maximum, CID 200 V, and CE 100 V. For analysis of ELIC in C10E5, ELIC delipidated by injecting 300 μg onto a Sephadex 200 10/300 column (GE Healthcare) at 0.5 ml/min pre-equilibrated with Buffer A, 10% glycerol, and 0.06% C10E5 (Anatrace). 30 μl aliquots were then buffer exchanged to 100 mM ammonium acetate pH 7.5, 0.06% C10E5 using Biospin six columns, and diluted to 0.2 mg/ml. MS measurements on the QExactive EMR were performed with the parameters listed above except: capillary temperature 100°C, CID 75 V and CE 200 V. For lipid binding measurements, stocks of POPG lipid were prepared at 2× the concentration of POPG being tested in 100 mM ammonium acetate pH 7.5% and 0.06% C10E5. Lipid stocks were then mixed with 0.4 mg/ml ELIC in a 1:1 vol ratio for a final concentration of 1 μM ELIC, and samples were analyzed after >5 min incubation.
MS spectra were deconvoluted using UniDec ([Marty et al., 2015]); deconvolution of spectra with bound lipid was restricted to the 26+ to 22+ charge states (Figure 1—figure supplement 3). Peak heights of apo and lipid-bound species were extracted from UniDec, and analyzed by two approaches. The average number of bound lipids was determined by the following relationship:(1) Averagenumberboundlipid=∑n=0kn\cdot In/∑n=0kIn where n is the number of bound lipids and In is the deconvoluted peak height of ELIC with n bound lipids. Peak heights of apo and lipid-bound species were also plotted as mole fraction versus the number of bound lipids (Figure 1—figure supplement 4).
Then, the probability (B) that q sites are occupied out of N total sites is given by the binomial probability function:(3) Bq=N!/q!N-q!p^N-q(1-p)^q
B(q) was used to determine the mole fraction of each lipid-bound species at a given [A], which was used to fit the native MS data in Excel across all [A] by setting K constant and varying N or vice versa.

ELIC WT [2] = experiment: Sequential-mixing stopped-flow fluorescence Tl+ flux assay in liposomes; type: biochemical, Erwinia chrysanthemi; conditions: 5 mM cysteamine
ELIC WT [3] = experiment: Thermal stability assay (SEC pentamer peak after heating); type: binding, Erwinia chrysanthemi; conditions: 1 μM ELIC in C10E5, 32°C for 15 min
Protocol: Purified WT ELIC in C10E5 (Buffer A, 0.06% C10E5) was diluted to 1 μM in the absence or presence of various concentrations of phospholipid. Samples were analyzed without and with heating in the absence or presence of phospholipid. […] The stabilizing effect of a phospholipid was quantified as the pentamer amplitude in the presence of phospholipid (heated) divided by control (heated).

ELIC L238A = target: T1, ELIC L238A (Dickeya chrysanthemi, UniProt P0C7B7, L237A); experiment: Excised patch-clamp recordings from giant liposomes; type: biochemical, Erwinia chrysanthemi; conditions: 25 mole% POPG
T1 construct: MBP (N, cleaved yes); made in house; host or cells: OverExpress C43 (DE3) E. coli

ELIC R299Q = target: T2, ELIC R299Q (Dickeya chrysanthemi, UniProt P0C7B7, R298Q); experiment: as above; type: biochemical, Erwinia chrysanthemi; conditions: 25 mole% POPG
T2 construct: MBP (N, cleaved yes); made in house; host or cells: OverExpress C43 (DE3) E. coli

ELIC R286Q/R299Q = target: T3, ELIC R286Q/R299Q (Dickeya chrysanthemi, UniProt P0C7B7, R285Q/R298Q); experiment: as above; type: biochemical, Erwinia chrysanthemi; conditions: 25 mole% POPG
T3 construct: MBP (N, cleaved yes); made in house; host or cells: OverExpress C43 (DE3) E. coli

ELIC R301Q/R299Q = target: T4, ELIC R301Q/R299Q (Dickeya chrysanthemi, UniProt P0C7B7, R298Q/R300Q); experiment: as above; type: biochemical, Erwinia chrysanthemi; conditions: 25 mole% POPG
T4 construct: MBP (N, cleaved yes); made in house; host or cells: OverExpress C43 (DE3) E. coli

ELIC R301Q = target: T5, ELIC R301Q (Dickeya chrysanthemi, UniProt P0C7B7, R300Q); experiment: as above; type: biochemical, Erwinia chrysanthemi; conditions: 25 mole% POPG
T5 construct: MBP (N, cleaved yes); made in house; host or cells: OverExpress C43 (DE3) E. coli

ELIC R286Q = target: T6, ELIC R286Q (Dickeya chrysanthemi, UniProt P0C7B7, R285Q); experiment: as above; type: biochemical, Erwinia chrysanthemi; conditions: 25 mole% POPG
T6 construct: MBP (N, cleaved yes); made in house; host or cells: OverExpress C43 (DE3) E. coli

ELIC WT [4] = experiment: as above; conditions: for EC50: read-out: Dose response EC50 (mM cysteamine), peak current, 0.5 mM BaCl2
ELIC R117Q = target: T7, ELIC R117Q (Dickeya chrysanthemi, UniProt P0C7B7, INS163G/R117Q); experiment: as above; type: biochemical, Erwinia chrysanthemi; conditions: 25 mole% POPG
T7 construct: MBP (N, cleaved yes); made in house; host or cells: OverExpress C43 (DE3) E. coli

ELIC R123Q/R299Q = target: T8, ELIC R123Q/R299Q (Dickeya chrysanthemi, UniProt P0C7B7, R123Q/R298Q); experiment: as above; type: biochemical, Erwinia chrysanthemi; conditions: 25 mole% POPG
T8 construct: MBP (N, cleaved yes); made in house; host or cells: OverExpress C43 (DE3) E. coli

ELIC R123Q = target: T9, ELIC R123Q (Dickeya chrysanthemi, UniProt P0C7B7, INS163G/R123Q); experiment: as above; type: biochemical, Erwinia chrysanthemi; conditions: 25 mole% POPG
T9 construct: MBP (N, cleaved yes); made in house; host or cells: OverExpress C43 (DE3) E. coli

ELIC R117Q/R299Q = target: T10, ELIC R117Q/R299Q (Dickeya chrysanthemi, UniProt P0C7B7, R117Q/R298Q); experiment: as above; type: biochemical, Erwinia chrysanthemi; conditions: 25 mole% POPG
T10 construct: MBP (N, cleaved yes); made in house; host or cells: OverExpress C43 (DE3) E. coli

[5] = target: the molecule itself; experiment: native MS; ELIC purified in 0.02% DDM, buffer exchanged into 200 mM ammonium acetate pH 7.5, 0.02% DDM; static nanospray, Q-Exactive EMR, CID 200 V, CE 100 V; co-purified lipids bound
[6] = read-out: Cysteamine response EC50

`CCCCCCCC/C=C\CCCCCCCC(=O)O[C@H](COC(=O)CCCCCCCCCCCCCCC)COP(=O)([O-])OCC[N+](C)(C)C` [POPC, 1-palmitoyl-2-oleoyl-phosphatidylcholine] was tested, and the Kd (ELIC WT [1]) was 280 µM, the “Fold faster rate of desensitization in POPC liposomes vs POPC:POPE:POPG liposomes” value (ELIC WT [2]) was “more than 20 fold” and the “Activation τ” value (ELIC WT [2]; liposome composition as labelled, double exponential fit, fast component) was 39 ± 17 ms. For the same molecule, the “Desensitization τ” value (ELIC WT [2]; liposome composition as labelled, double exponential fit, slow component) was 0.42 ± 0.05 s and the “Effect on ELIC stability against thermal denaturation” value (ELIC WT [3]) was “no effect”.

For `CCCCCCCC/C=C\CCCCCCCC(=O)O[C@H](COC(=O)CCCCCCCCCCCCCCC)COP(=O)(O)OCCN` [POPE, 1-palmitoyl-2-oleoyl-phosphatidylethanolamine], the Kd (ELIC WT [1]) was 190 µM and the “Effect on ELIC stability against thermal denaturation” value (ELIC WT [3]) was “no effect”.

In the case of `NCCS` [cysteamine], the “Activation τ” value (ELIC L238A; 30 mM cysteamine) is reported as 113 ± 51 ms, the “Desensitization norm current at 20 s” value (ELIC L238A; 30 mM cysteamine) is reported as 0.374 ± 0.045 and the “Desensitization weighted τ” value (ELIC L238A; 30 mM cysteamine) is reported as 5.90 ± 1.37 s. For the same molecule, the EC50 (ELIC L238A; [6]) was 4.9 ± 1.1 mM, the “Activation τ” value (ELIC R299Q; 30 mM cysteamine) was 71 ± 27 ms and the “Desensitization norm current at 20 s” value (ELIC R299Q; 30 mM cysteamine) was 0.074 ± 0.008. The “Desensitization weighted τ” value (ELIC R299Q; 30 mM cysteamine) was 2.2 ± 0.17 s, the EC50 (ELIC R299Q; [6]) was 4.7 ± 0.3 mM and the “Activation τ” value (ELIC R286Q/R299Q; 30 mM cysteamine) was 92 ± 27 ms. For the same molecule, the “Desensitization norm current at 20 s” value (ELIC R286Q/R299Q; 30 mM cysteamine) was 0.103 ± 0.032, the “Desensitization weighted τ” value (ELIC R286Q/R299Q; 30 mM cysteamine) was 2.08 ± 0.65 s and the EC50 (ELIC R286Q/R299Q; [6]) was 4.7 ± 1.5 mM. The “Activation τ” value (ELIC R301Q/R299Q; 30 mM cysteamine) was 71 ± 21 ms, the “Desensitization norm current at 20 s” value (ELIC R301Q/R299Q; 30 mM cysteamine) was 0.030 ± 0.017 and the “Desensitization weighted τ” value (ELIC R301Q/R299Q; 30 mM cysteamine) was 0.45 ± 0.28 s. For the same molecule, the EC50 (ELIC R301Q/R299Q; [6]) was 3.9 ± 0.9 mM, the “Activation τ” value (ELIC R301Q; 30 mM cysteamine) was 72 ± 15 ms and the “Desensitization norm current at 20 s” value (ELIC R301Q; 30 mM cysteamine) was 0.045 ± 0.017. The “Desensitization weighted τ” value (ELIC R301Q; 30 mM cysteamine) was 0.66 ± 0.28 s, the EC50 (ELIC R301Q; [6]) was 5.2 ± 0.8 mM and the “Activation τ” value (ELIC R286Q; 30 mM cysteamine) was 106 ± 34 ms. For the same molecule, the “Desensitization norm current at 20 s” value (ELIC R286Q; 30 mM cysteamine) was 0.091 ± 0.023, the “Desensitization weighted τ” value (ELIC R286Q; 30 mM cysteamine) was 1.67 ± 0.24 s and the EC50 (ELIC R286Q; [6]) was 4.3 ± 0.4 mM. For the same molecule, the “Activation τ” value (ELIC WT [4]; 25 mole% POPG, 30 mM cysteamine) was 134 ms and 134 ± 50 ms, the “Desensitization norm current at 20 s” value (ELIC WT [4]; 25 mole% POPG, 30 mM cysteamine, normalized to peak response) was 0.100 ± 0.041 and the EC50 (ELIC WT [4]; 12 mole% POPG) was 5.3 ± 1 mM. For the same molecule, the EC50 (ELIC WT [4]; 25 mole% POPG) was 5.1 ± 1.2 mM, the EC50 (ELIC WT [4]; 40 mole% POPG) was 6.5 ± 1.3 mM and the “Activation τ” value (ELIC R117Q; 30 mM cysteamine) was 54 ± 40 ms. For the same molecule, the “Desensitization norm current at 20 s” value (ELIC R117Q; 30 mM cysteamine) was 0.060 ± 0.020, the “Desensitization weighted τ” value (ELIC R117Q; 30 mM cysteamine) was 1.49 ± 0.40 s and the EC50 (ELIC R117Q; [6]) was 3.3 ± 0.9 mM. For the same molecule, the “Activation τ” value (ELIC R123Q/R299Q; 30 mM cysteamine) was 74 ± 35 ms, the “Desensitization norm current at 20 s” value (ELIC R123Q/R299Q; 30 mM cysteamine) was 0.041 ± 0.005 and the “Desensitization weighted τ” value (ELIC R123Q/R299Q; 30 mM cysteamine) was 1.66 ± 0.17 s. The EC50 (ELIC R123Q/R299Q; [6]) was 3.7 ± 0.6 mM, the “Activation τ” value (ELIC R123Q; 30 mM cysteamine) was 112 ± 65 ms and the “Desensitization norm current at 20 s” value (ELIC R123Q; 30 mM cysteamine) was 0.067 ± 0.015. The “Desensitization weighted τ” value (ELIC R123Q; 30 mM cysteamine) was 1.20 ± 0.39 s, the EC50 (ELIC R123Q; [6]) was 3.7 ± 0.9 mM and the “Activation τ” value (ELIC R117Q/R299Q; 30 mM cysteamine) was 54 ± 26 ms. For the same molecule, the “Desensitization norm current at 20 s” value (ELIC R117Q/R299Q; 30 mM cysteamine) was 0.025 ± 0.004, the “Desensitization weighted τ” value (ELIC R117Q/R299Q; 30 mM cysteamine) was 1.13 ± 0.24 s and the EC50 (ELIC R117Q/R299Q; [6]) was 2.4 ± 0.7 mM.

B1: Erwinia ligand-gated ion channel (ELIC), wild type (natural protein, Erwinia chrysanthemi, UniProt P0C7B7 1-321, looked up)
chain: APADNAADARPVDVSVSIFINKIYGVNTLEQTYKVDGYIVAQWTGKPRKTPGDKPLIVENTQIERWINNGLWVPALEFINVVGSPDTGNKRLMLFPDGRVIYNARFLGSFSNDMDFRLFPFDRQQFVLELEPFSYNNQQLRFSDIQVYTENIDNEEIDEWWIRKASTHISDIRYDHLSSVQPNQNEFSRITVRIDAVRNPSYYLWSFILPLGLIIAASWSVFWLESFSERLQTSFTLMLTVVAYAFYTSNILPRLPYTTVIDQMIIAGYGSIFAAILLIIFAHHRQAMGVEDDLLIQRCRLAFPLGFLAIGCVLVIRGITL
notes: Erwinia ligand-gated ion channel (ELIC), a pentameric ligand-gated ion channel of Erwinia chrysanthemi; expressed from pET26-MBP-ELIC (Addgene plasmid 39239); MBP was removed with HRV-3C protease before size exclusion; also called ELIC WT; WT; source: OverExpress C43 (DE3) E. coli, purified (membranes solubilized in DDM, amylose resin, HRV-3C digestion, size exclusion)
In the case of B1, the “stoichiometry N” value [5] is reported as 5.
